Test results from patent US20080161223A1, “Spirobornyl-2,4-(1,3-Dioxanes)] And Their Uses As Fragrance Ingredients” (GIVAUDAN SA, priority 2005, published 2008).

Tests used:
[1] = tested on: panel of trained evaluators; assay: Determination of GC-odour threshold concentration; conditions: gas chromatograph with sniff port; racemic mixture of compounds; group of 4 panelists; identical conditions
Protocol: Determination of GC-odour threshold concentration
According to standard procedures known to the person skilled in the art, threshold concentrations for volatile perfumery compounds are determined on a gas chromatograph equipped with a sniff port by a panel of trained evaluators. The lowest concentration smelled by each panellist is recorded as the individual threshold concentration expressed in ng (absolute amount of compound delivered at the sniff port).
Under identical conditions the odour threshold concentration for racemic mixture of compounds A, B and C respectively was measured and compared by a group of 4 panelists.

[2] = Relative odour threshold of constituents compared to the whole stereoisomer mixture; conditions: ratio rac-1b: rac-1d: 1f
Excerpt: b) A 6:2:1 racemic mixture If of diastereomers of (1R*,2S*,2′S*,4R*,5′R*)-, (1R*,2S*,2′S*,4R*,5′S*)- and (1R*,2S*,2′R*,4R*,5′S*)-1,2′,5′,7,7-pentamethylspiro[bicyclo[2.2.1]heptane-2,4′-[1,3]dioxane] was obtained in 38% overall yield following the experimental procedure of Example 1c, starting from the diol mixture 2d obtained from rac-camphor via 2-(1-methylallyl)-1,7,7-trimethylbicyclo[2.2.1]heptan-2-ol (5a), applying the methodology of Kostova et al (Helv. Chim. Acta 1999, 82, 1385), i.e. route III. The epimeric intermediate enols and diols were not separated. (1R*,2S*,2′S*,4R*,5′S*)- and (1R*,2S*,2′S*,4R*,5′R*)- enatiomeric pairs are the strongest constituents of the mixture. Their relative odour threshold, compared to the whole stereoisomer mixture, were 1:50:4 (rac-1b: rac-1d: 1f).

[3] = Odour description (olfactory evaluation of the compound); conditions: stated within the odour description

SMILES | odour threshold concentration geometric mean [1] [ng] | relative odour threshold [2] | Odour strength compared to another compound [3]
CC1OCCC2(CC3CCC2(C)C3(C)C)O1 (racemic) [A] | 22 | – | –
CC1CC2(CC3CCC2(C)C3(C)C)OC(C)O1 (racemic) [B] | 68 | – | –
CC1OCC(C)C2(CC3CCC2(C)C3(C)C)O1 (racemic) [Compound 1f, (1RS,2SR,2′RS/SR,4RS,5′RS/SR)-1,2′,5′,7,7-Pentamethylspiro[bicyclo[2.2.1]heptane-2,4′-[1,3]dioxane]] | – | 4 | –
CC1OCC(C)C2(CC3CCC2(C)C3(C)C)O1 (racemic) [rac-1b] | – | 1 | –
CC1OCC(C)C2(CC3CCC2(C)C3(C)C)O1 (racemic) [rac-1d] | – | 50 | –
C[C@@H]1OC[C@H](C)[C@]2(C[C@H]3CC[C@]2(C)C3(C)C)O1 (single isomer, unassigned) [Compound 1c] | – | – | weaker than 1b
CC1OCC(C)C2(CC3CCC2(C)C3(C)C)O1 (stereo not drawn) [C] | 3 | – | –
CC[C@@H]1OC[C@H](C)[C@]2(C[C@H]3CC[C@]2(C)C3(C)C)O1 [Compound 1h, (1R,2S,2′R,4R,5′S)-2′-Ethyl-1,5′,7,7-tetramethylspiro[bicyclo[2.2.1]heptane-2,4′-[1,3]dioxane]] | – | – | weaker than compound 1g
CC(C)[C@@H]1OC[C@H](C)[C@]2(C[C@H]3CC[C@]2(C)C3(C)C)O1 [Compound 1j, (1R,2S,2′R,4R,5′S)-2′-Isopropyl-1,5′,7,7-tetramethylspiro[bicyclo[2.2.1]heptane-2,4′-[1,3]dioxane]] | – | – | weaker than compound 1i
